Results taken from the SangsterLogP compilation.

Row | logP | SMILES
1 | 2.43 | C=CCSc1nc(Sc2c([N+](=O)[O-])ncn2C)c2c(ncn2C)n1
2 | 1.21 | CN1C=NC([N+](=O)[O-])C1Sc1nc2ncn(C)c2c(=O)[nH]1 (configuration not stated)
3 | 1.12 | Cn1cnc([N+](=O)[O-])c1Sc1nc(=O)[nH]c2ncn(C)c12
4 | 2.02 | C=CCOc1nc(Sc2c([N+](=O)[O-])ncn2C)c2c(ncn2C)n1
5 | 1.68 | Cn1cnc([N+](=O)[O-])c1Sc1nc(Sc2c([N+](=O)[O-])ncn2C)c2c(ncn2C)n1
6 | 1.26 | Cn1cnc([N+](=O)[O-])c1Sc1nc2ncn(C)c2c(=S)[nH]1
7 | 1.45 | COc1nc(Sc2c([N+](=O)[O-])ncn2C)c2c(ncn2C)n1
8 | 1.19 | Cn1cnc([N+](=O)[O-])c1Sc1nc(=S)[nH]c2ncn(C)c12
9 | 2.67 | Cn1cnc([N+](=O)[O-])c1Sc1nc(OCc2ccccc2)nc2ncn(C)c12
10 | 1.5 | Cn1cnc([N+](=O)[O-])c1Sc1nc(Cl)nc2ncn(C)c12
11 | 1.6 | CSc1nc(Sc2c([N+](=O)[O-])ncn2C)c2c(ncn2C)n1
12 | 2.91 | Cn1cnc([N+](=O)[O-])c1Sc1nc(SCc2ccccc2)nc2ncn(C)c12
